From patent US10512700B2, “Radiohalide-labeled targeted diagnostics and therapeutics” (Memorial Sloan Kettering Cancer Center, priority 2014, dated 2019)
Several values for one entry are separate records, joined by “and”; a condition that tells them apart may be missing. Identical values can stand only once.

Experiments:
[1] = Stability in whole blood (in vitro); type: in vitro ADME, mouse
Method: […] […] The sample was centrifuged at 3000 RCF for 3 min at 4° C., and the supernatant collected. This procedure was repeated three times, and the combined supernatants analyzed by HPLC equipped with radioactive detector (Shimadzu, Kyoto, Japan), collecting samples every 30 sec. Radioactivity of each fraction was measured on a Wizard 2470 Automatic Gamma Counter (Perkin Elmer, Waltham, Mass.) and the blood stability was analyzed using Prism 6.0c (GraphPad Software, La Jolla, Calif.).

[2] = system: U87 MG tumor bearing mice; assay: Biodistribution; type: in vivo, mouse; details: i.v.
Method: Biodistribution experiments were conducted on female nude mice (8-10 weeks old and 20-25 g in weight, n=21) bearing U87 MG subcutaneous xenografts. The radiolabeled preparation (20-30 μCi of compound C-2d (^131I) in 200 μL of a solution 90% PBS 10% PEG300) was administrated via the lateral tail vein. To determine a suitable specific activity (to achieve a sufficiently high tumor to organ ratio), several specific activities were tested (5 mCi/μmol, 50 mCi/μmol, 250 mCi/μmol) in mice bearing U87 MG tumors. The compound was allowed to circulate for 2 h post injection at which time mice were sacrificed and organs were harvested (n=3). The radioactive content in tissue of interest (blood, tumor, muscle, bone, liver, spleen, kidney, heart, lung, pancreas, brain, skin, small intestine, large intestine, stomach, tail, thyroid and feces) was measured on a Wizard 2470 Automatic Gamma Counter, and the tissue-associated activity was calculated as the mean % ID/g using the following formula: [(activity in the target organ/grams of tissue)/injected dose]×100%.
After determining the optimal specific activity (of the three tested), a suitable time window for imaging was determined by testing the compound distribution in nude mice bearing U87 MG tumors at different time points. The compound was allowed to circulate for various times (1, 2, and 6 h), after which the mice were sacrificed (n=3).

Blood half-life = type: in vivo, mouse; details: healthy athymic nude mice, tail vein
Method: The blood half-life was determined by measuring the activity in serial blood samplings. […] Measurements in counts per minute were calculated as the mean % ID/g. The blood half-life was calculated using Prism 6.0c (GraphPad Software, La Jolla, Calif.).
The blood half-life was calculated by measuring the activity of blood samples collected at different time points p.i. […] The collected blood was weighed and counted in a WIZARD^2 automatic γ-counter (PerkinElmer, Boston, Mass.). The blood half-life was calculated using Prism 6.0c (GraphPad Software, La Jolla, Calif.) using a two-phase decay least squares fitting method and expressed as % ID/g.

[3] = 50 mCi/μmol, 2 h post injection
[4] = 250 mCi/μmol, 2 h post injection

in vitro blood stability ([1]; mouse blood, 37° C., over 60 min): confirmed the stability of the compound
in vitro blood stability ([1]; over the course of 120 minutes): confirmed the stability of the compound
% ID/g, Blood ([2]; 5 mCi/μmol, 2 h post injection): 5.88 % ID/g
% ID/g, Bone ([2]; 5 mCi/μmol, 2 h post injection): 0.14 % ID/g
% ID/g, Brain ([2]; 5 mCi/μmol, 2 h post injection): 0.02 % ID/g
% ID/g, Feces ([2]; 5 mCi/μmol, 2 h post injection): 6.23 % ID/g
% ID/g, Heart ([2]; 5 mCi/μmol, 2 h post injection): 0.26 % ID/g
% ID/g, Kidneys ([2]; 5 mCi/μmol, 2 h post injection): 1.08 % ID/g
% ID/g, Large intestine ([2]; 5 mCi/μmol, 2 h post injection): 5.43 % ID/g
% ID/g, Liver ([2]; 5 mCi/μmol, 2 h post injection): 3.14 % ID/g
% ID/g, Lung ([2]; 5 mCi/μmol, 2 h post injection): 0.55 % ID/g
% ID/g, Muscle ([2]; 5 mCi/μmol, 2 h post injection): 0.27 % ID/g
% ID/g, Pancreas ([2]; 5 mCi/μmol, 2 h post injection): 0.67 % ID/g
% ID/g, Skin ([2]; 5 mCi/μmol, 2 h post injection): 0.26 % ID/g
% ID/g, Small intestine ([2]; 5 mCi/μmol, 2 h post injection): 14.16 % ID/g
% ID/g, Spleen ([2]; 5 mCi/μmol, 2 h post injection): 0.60 % ID/g
% ID/g, Stomach ([2]; 5 mCi/μmol, 2 h post injection): 5.86 % ID/g
% ID/g, Tail ([2]; 5 mCi/μmol, 2 h post injection): 2.31 % ID/g
% ID/g, Thyroid ([2]; 5 mCi/μmol, 2 h post injection): 0.37 % ID/g
% ID/g, Tumor ([2]; 5 mCi/μmol, 2 h post injection): 0.32 % ID/g
% ID/g, Blood [2, 3]: 0.90 % ID/g
% ID/g, Bone [2, 3]: 0.04 % ID/g
% ID/g, Brain [2, 3]: 0.007 % ID/g
% ID/g, Feces [2, 3]: 3.75 % ID/g
% ID/g, Heart [2, 3]: 0.10 % ID/g
% ID/g, Kidneys [2, 3]: 0.35 % ID/g
% ID/g, Large intestine [2, 3]: 0.94 % ID/g
% ID/g, Liver [2, 3]: 1.02 % ID/g
% ID/g, Lung [2, 3]: 0.28 % ID/g
% ID/g, Muscle [2, 3]: 0.04 % ID/g
% ID/g, Pancreas [2, 3]: 0.42 % ID/g
% ID/g, Skin [2, 3]: 0.092 % ID/g
% ID/g, Small intestine [2, 3]: 7.17 % ID/g
% ID/g, Spleen [2, 3]: 0.15 % ID/g
% ID/g, Stomach [2, 3]: 1.90 % ID/g
% ID/g, Tail [2, 3]: 0.45 % ID/g
% ID/g, Thyroid [2, 3]: 0.14 % ID/g
% ID/g, Tumor [2, 3]: 0.17 % ID/g
% ID/g, Blood [2, 4]: 4.78 % ID/g
% ID/g, Bone [2, 4]: 0.09 % ID/g
% ID/g, Brain [2, 4]: 0.06 % ID/g
% ID/g, Feces [2, 4]: 67.25 % ID/g
% ID/g, Heart [2, 4]: 0.16 % ID/g
% ID/g, Kidneys [2, 4]: 0.58 % ID/g
% ID/g, Large intestine [2, 4]: 17.29 % ID/g
% ID/g, Liver [2, 4]: 2.17 % ID/g
% ID/g, Lung [2, 4]: 0.43 % ID/g
% ID/g, Muscle [2, 4]: 0.074 % ID/g
% ID/g, Pancreas [2, 4]: 0.27 % ID/g
% ID/g, Skin [2, 4]: 0.14 % ID/g
% ID/g, Small intestine [2, 4]: 7.55 % ID/g
% ID/g, Spleen [2, 4]: 0.43 % ID/g
% ID/g, Stomach [2, 4]: 1.25 % ID/g
% ID/g, Tail [2, 4]: 0.58 % ID/g
% ID/g, Thyroid [2, 4]: 0.20 % ID/g
% ID/g, Tumor [2, 4]: 0.18 % ID/g
% ID/g, Blood ([2]; 1 h post injection): 2.76 % ID/g
% ID/g, Bone ([2]; 1 h post injection): 0.19 % ID/g
% ID/g, Brain ([2]; 1 h post injection): 0.034 % ID/g
% ID/g, Feces ([2]; 1 h post injection): 7.31 % ID/g
% ID/g, Heart ([2]; 1 h post injection): 0.39 % ID/g
% ID/g, Kidneys ([2]; 1 h post injection): 1.60 % ID/g
% ID/g, Large intestine ([2]; 1 h post injection): 1.49 % ID/g
% ID/g, Liver ([2]; 1 h post injection): 4.61 % ID/g
% ID/g, Lung ([2]; 1 h post injection): 0.71 % ID/g
% ID/g, Muscle ([2]; 1 h post injection): 0.27 % ID/g
% ID/g, Pancreas ([2]; 1 h post injection): 0.74 % ID/g
% ID/g, Skin ([2]; 1 h post injection): 0.46 % ID/g
% ID/g, Small intestine ([2]; 1 h post injection): 13.70 % ID/g
% ID/g, Spleen ([2]; 1 h post injection): 0.64 % ID/g
% ID/g, Stomach ([2]; 1 h post injection): 1.88 % ID/g
% ID/g, Tail ([2]; 1 h post injection): 1.00 % ID/g
% ID/g, Thyroid ([2]; 1 h post injection): 0.56 % ID/g
% ID/g, Tumor ([2]; 1 h post injection): 0.50 % ID/g
% ID/g, Blood ([2]; 2 h post injection): 0.90 % ID/g
% ID/g, Bone ([2]; 2 h post injection): 0.044 % ID/g
% ID/g, Brain ([2]; 2 h post injection): 0.007±0.002 % ID/g and 0.007 % ID/g
% ID/g, Feces ([2]; 2 h post injection): 3.75 % ID/g
% ID/g, Heart ([2]; 2 h post injection): 0.10 % ID/g
% ID/g, Kidneys ([2]; 2 h post injection): 0.35 % ID/g
% ID/g, Large intestine ([2]; 2 h post injection): 0.94 % ID/g
% ID/g, Liver ([2]; 2 h post injection): 1.02 % ID/g
% ID/g, Lung ([2]; 2 h post injection): 0.28 % ID/g
% ID/g, Muscle ([2]; 2 h post injection): 0.04±0.02 % ID/g and 0.039 % ID/g
% ID/g, Pancreas ([2]; 2 h post injection): 0.42 % ID/g
% ID/g, Skin ([2]; 2 h post injection): 0.091 % ID/g
% ID/g, Small intestine ([2]; 2 h post injection): 7.16 % ID/g
% ID/g, Spleen ([2]; 2 h post injection): 0.15 % ID/g
% ID/g, Stomach ([2]; 2 h post injection): 1.90 % ID/g
% ID/g, Tail ([2]; 2 h post injection): 0.45 % ID/g
% ID/g, Thyroid ([2]; 2 h post injection): 0.14 % ID/g
% ID/g, Tumor ([2]; 2 h post injection): 0.17±0.06 % ID/g and 0.17 % ID/g
% ID/g, Blood ([2]; 6 h post injection): 0.34 % ID/g
% ID/g, Bone ([2]; 6 h post injection): 0.035 % ID/g
% ID/g, Brain ([2]; 6 h post injection): 0.008 % ID/g
% ID/g, Feces ([2]; 6 h post injection): 70.67 % ID/g
% ID/g, Heart ([2]; 6 h post injection): 0.075 % ID/g
% ID/g, Kidneys ([2]; 6 h post injection): 0.24 % ID/g
% ID/g, Large intestine ([2]; 6 h post injection): 1.33 % ID/g
% ID/g, Liver ([2]; 6 h post injection): 0.65 % ID/g
% ID/g, Lung ([2]; 6 h post injection): 0.12 % ID/g
% ID/g, Muscle ([2]; 6 h post injection): 0.023 % ID/g
% ID/g, Pancreas ([2]; 6 h post injection): 0.084 % ID/g
% ID/g, Skin ([2]; 6 h post injection): 0.072 % ID/g
% ID/g, Small intestine ([2]; 6 h post injection): 1.13 % ID/g
% ID/g, Spleen ([2]; 6 h post injection): 0.060 % ID/g
% ID/g, Stomach ([2]; 6 h post injection): 0.81 % ID/g
% ID/g, Tail ([2]; 6 h post injection): 0.31 % ID/g
% ID/g, Thyroid ([2]; 6 h post injection): 0.098 % ID/g
% ID/g, Tumor ([2]; 6 h post injection): 0.13 % ID/g
alpha blood half-life (Blood half-life): 14.3 min
alpha blood half-life, share of phase (Blood half-life): 96.25%
beta blood half-life (Blood half-life): 94.6 min
beta blood half-life, share of phase (Blood half-life): 3.75%
weighted blood half-life (Blood half-life; 50 μCi): 17.1 min
Structure (SMILES): O=C(c1ccc([131I])cc1)N1CCN(C(=O)c2cc(Cc3n[nH]c(=O)c4ccccc34)ccc2F)CC1 [C-2d (^131I)]
